From PubChem BioAssay (NCI)
“And” between values parts separate entries of the source, which are not always exact repeats. Equal entries are not always repeated.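 Each compound was tested at five concentrations against cells in 96-well plates for 48 hours. Abbreviation: GI50, concentration required for 50% inhibition of growth. TGI is the concentration that stops growth completely.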 Where a SMILES comes first, the peptide text is derived from it. [ ]: non-standard residue; d: D form. The star is where a group is joined. Phe(4-NO2) = N[CH](Cc1ccc([N+](=O)[O-])cc1)C(=O)O; Palmitoyl = CCCCCCCCCCCCCCCC(=O)*; Boc = CC(C)(C)OC(=O)*; OtBu = CC(C)(C)O*

Legend:
Test in all cases: NCI anticancer screen, dose series, 48 h
A549 NSCLC = tested on: A549 NSCLC
HCT-116 colon = tested on: HCT-116 colon
MALME-3M melanoma = tested on: MALME-3M melanoma
MDA-MB-231 breast = tested on: MDA-MB-231 breast
NCI-H522 lung = tested on: NCI-H522 lung
SF-539 CNS = tested on: SF-539 CNS
SNB-75 CNS = tested on: SNB-75 CNS
SR leukemia = tested on: SR leukemia
SW-620 colon = tested on: SW-620 colon
UO-31 renal = tested on: UO-31 renal

Compound	TGI (A549 NSCLC)	TGI (HCT-116 colon)	TGI (MALME-3M melanoma)	TGI (MDA-MB-231 breast) [µM]	TGI (NCI-H522 lung)	TGI (SF-539 CNS)	TGI (SNB-75 CNS)	TGI (SR leukemia)	TGI (SW-620 colon)	TGI (UO-31 renal)	GI50 (A549 NSCLC) [µM]	GI50 (HCT-116 colon) [µM]	GI50 (MALME-3M melanoma)	GI50 (MDA-MB-231 breast) [µM]	GI50 (NCI-H522 lung)	GI50 (SF-539 CNS)	GI50 (SNB-75 CNS) [µM]	GI50 (SR leukemia) [µM]	GI50 (SW-620 colon) [µM]	GI50 (UO-31 renal) [µM]
O=C(NCCCCl)c1c(O)c2ccccc2[nH]c1=O	> 100 µM	> 100 µM	> 100 µM	> 100	> 100 µM	> 100 µM	> 77.8 µM	> 100 µM	> 100 µM	> 100 µM	–	–	–	–	–	–	–	–	–	–
COC1=CC2(C=CC1=O)CCN=c1c(O)c3c(c(O)c12)=NC=N3 (stereo not given)	> 100 µM	> 100 µM	> 100 µM	> 100	> 100 µM	> 100 µM	> 100 µM	> 100 µM	> 100 µM	> 100 µM	–	–	–	–	–	–	–	–	–	–
Cc1nn(C(=O)c2ccccc2O)c2c1C(c1ccc(O)cc1)SC(N)=N2 (stereo not given)	> 10 µM	> 3.32 µM	> 10 µM	> 10	> 10 µM	> 2.47 µM	8.56 µM	> 3.92 µM	> 10 µM	> 10 µM	–	–	–	–	–	–	–	–	–	–
COc1cc(O)c2c(c1)C(O)C(O)CC1OC1C(=O)/C=C/CC(C)OC2=O (stereo not given)	67.8 µM	12.2 µM	6.91 µM	16.1	8.07 µM	17.9 µM	24.6 µM	> 45.4 µM	6.84 µM	17.1 µM	–	–	–	–	–	–	–	–	–	–
COc1ccc(S(=O)(=O)Nc2ccc(-c3csc(N4C(=O)/C(=C/C=C\c5ccccc5)N=C4c4ccccc4)n3)cc2)cc1Cl	> 100 µM	68.5 µM	63.1 µM	51.6	47.3 µM	> 100 µM	> 100 µM	> 100 µM	> 100 µM	58.6 µM	–	–	–	–	–	–	–	–	–	–
COC(=O)CNC(=O)/C=C/[C@H](O[Si](C)(C)C(C)(C)C)[C@H](/C=C/C(=O)NCC(=O)OC)O[Si](C)(C)C(C)(C)C	> 25 µM	> 25 µM	> 25 µM	> 25	> 25 µM	> 25 µM	> 25 µM	> 25 µM	> 25 µM	> 25 µM	–	–	–	–	–	–	–	–	–	–
CC(=O)OCC1OC(n2c3c(c(-c4ccco4)c(C#N)c2=S)CCCC3)C(OC(C)=O)C(OC(C)=O)C1OC(C)=O (stereo not given)	> 31.6 µM	> 31.6 µM	> 31.6 µM	> 31.6	> 31.6 µM	> 31.6 µM	24.6 µM	> 31.6 µM	> 100 µM	> 31.6 µM	–	–	–	–	–	–	–	–	–	–
c1csc(-c2ccc(-c3ccc(-c4cccs4)s3)s2)c1	> 100 µM	> 100 µM	> 100 µM	> 100	> 100 µM	> 100 µM	> 100 µM	> 100 µM	> 100 µM	> 100 µM	–	–	–	–	–	–	–	–	–	–
COC(=O)C(Cc1ccc([N+](=O)[O-])cc1)NC(=O)C(CC(=O)OC(C)(C)C)NC(=O)OC(C)(C)C (stereo not given) (Boc-Asp(OtBu)-[Phe(4-NO2)]-OMe; configuration not given here)	> 100 µM	> 100 µM	> 100 µM	68.4	> 100 µM	> 100 µM	> 100 µM	54 µM	> 100 µM	29.6 µM	–	–	–	–	–	–	–	–	–	–
CCCCCCCCCCCCCCCC(=O)NC(CCCCN)C(=O)NCC(=O)NC(Cc1ccccc1)C(=O)N1CCCC1C(=O)NC(CO)C(=O)NC(Cc1ccc(O)cc1)C(=O)NC(CCCCN)C(=O)NC(CC(C)C)C(=O)NC(CCCN=C(N)N)C(=O)N1CCCC1C(=O)NCC(N)=O (stereo not given) (Palmitoyl-KGFPSYKLRPG-NH2; configuration not given here)	44.4 µM	31.8 µM	> 100 µM	33.2	50.6 µM	48.1 µM	49.6 µM	39.4 µM	79.5 µM	49.9 µM	19.5	15.3	> 100 µM	17.3	22.1 µM	21.1 µM	22.7	17.7	26	20.2
CC(C)[Si]1(C(C)C)OCC2OC(n3cnc4c(N)ncnc43)C(N)C2O[Si](C(C)C)(C(C)C)O1 (stereo not given)	49.5 µM	16.9 µM	> 100 µM	33.1	26.4 µM	24.4 µM	25.1 µM	> 27.1 µM	> 45.4 µM	27.6 µM	–	–	–	–	–	–	–	–	–	–
Clc1ncc(C(Cl)(Cl)Cl)nc1-c1ccccc1	22.5 µM	3.52 µM	19.1 µM	3.86	6.72 µM	5.05 µM	6.24 µM	10.9 µM	> 100 µM	3.34 µM	–	–	–	–	–	–	–	–	–	–
CN(C)CCn1c(=O)c2ccc(NCCNCCO)c3c(=O)c4cc(O)ccc4n(c1=O)c23	33.9 µM	3.15 µM	17.1 µM	3.37	3.58 µM	1.65 µM	6.2 µM	0.619 µM	11.2 µM	28.2 µM	–	–	–	–	–	–	–	–	–	–
CCCCC(=C=C1CCCCC1O)C1CCCN1C(=O)OC(C)(C)C (stereo not given)	29.3 µM	27.3 µM	31.6 µM	30	32.8 µM	35.5 µM	26.7 µM	> 100 µM	35.4 µM	35.8 µM	–	–	–	–	–	–	–	–	–	–
COc1cc([C@@H]2c3cc4c(cc3[C@@H](Nc3ccc(Cl)cc3C(=O)c3ccccc3Cl)[C@H]3COC(=O)[C@H]23)OCO4)cc(OC)c1OC	> 100 µM	> 100 µM	> 100 µM	> 100	0.237 µM	0.198 µM	> 100 µM	0.425 µM	> 46.1 µM	> 100 µM	–	–	–	–	–	–	–	–	–	–
CCOc1cc(C=O)ccc1O	> 100 µM	> 100 µM	> 100 µM	> 100	> 100 µM	> 100 µM	> 100 µM	> 100 µM	> 100 µM	> 100 µM	–	–	–	–	–	–	–	–	–	–
Cc1cnc2[nH]c(-c3ccccc3)cc(=O)c2c1	> 100 µM	> 100 µM	> 100 µM	> 100	0.526 µM	0.0671 µM	82.8 µM	> 100 µM	> 100 µM	68 µM	–	–	–	–	–	–	–	–	–	–
O=C(O)c1ccccc1-c1ccccc1C(=O)c1ccccc1	> 100 µM	> 100 µM	> 100 µM	> 100	> 100 µM	> 100 µM	> 100 µM	> 100 µM	> 100 µM	> 100 µM	–	–	–	–	–	–	–	–	–	–
C=C1c2nc3ccccc3n2C=C(c2ccccc2)N1c1ccc(OC)cc1	> 100 µM	59.9 µM	44.8 µM	> 100	16.1 µM	26.9 µM	21.2 µM	> 100 µM	> 100 µM	26.6 µM	–	–	–	–	–	–	–	–	–	–
C[C@@H](C[C@@H](O)[C@H](O)C(C)(C)O)[C@H]1CC=C2[C@]3(C)[C@H](O)C[C@H]4C(C)(C)[C@H](O)CC[C@]4(C)[C@H]3CC[C@@]21C	26.4 µM	34.7 µM	28 µM	27.4	28 µM	35.7 µM	39.1 µM	> 100 µM	32.3 µM	28.7 µM	–	–	–	–	–	–	–	–	–	–
C/C(=C/CC[C@](C)(OC1OC(CO)C(O)C(O)C1O)[C@H]1CC[C@]2(C)[C@@H]1CC[C@@H]1[C@@]3(C)CC[C@H](O)C(C)(C)[C@@H]3C[C@H](O)[C@]12C)CO (stereo not given in full)	> 100 µM	42.7 µM	56.5 µM	91.5	42.7 µM	35.6 µM	56 µM	> 100 µM	62.4 µM	> 100 µM	–	–	–	–	–	–	–	–	–	–
CCCCCCCC(CC(=O)O)OC(=O)CC(CCCCCCC)OC1OC(C)C(O)C(O)C1OC1OC(C)C(O)C(O)C1O (stereo not given)	> 100 µM	> 100 µM	> 100 µM	> 100	> 100 µM	> 100 µM	> 100 µM	> 100 µM	> 100 µM	> 100 µM	–	–	–	–	–	–	–	–	–	–
CCC1(O)CN(CCOC)[C@H]2C[C@@H]1C(=O)c1[nH]c3ccccc3c12 (stereo not given in full)	> 100 µM	> 100 µM	> 100 µM	> 100	> 100 µM	> 100 µM	> 100 µM	> 100 µM	> 100 µM	> 100 µM	–	–	–	–	–	–	–	–	–	–
COc1cccc(N2N=C3c4ccccc4-n4c(nc5ccccc54)C3C2N)c1 (stereo not given)	> 100 µM	> 100 µM	> 100 µM	> 100	> 100 µM	> 100 µM	> 100 µM	> 100 µM	> 100 µM	> 100 µM	–	–	–	–	–	–	–	–	–	–
O=C(Cc1nc2ccc([N+](=O)[O-])cc2[nH]c1=O)C(=O)Nc1cc(Cl)c(Cl)cc1Cl	> 100 µM	> 100 µM	> 100 µM	> 100	> 100 µM	> 100 µM	> 100 µM	> 100 µM	> 100 µM	> 100 µM	–	–	–	–	–	–	–	–	–	–
COC1(OC)/C(=C(\N)C=O)NC(C)(C)N1O	> 100 µM	> 100 µM	> 100 µM	> 100	> 100 µM	> 100 µM	> 100 µM	> 100 µM	> 100 µM	> 100 µM	–	–	–	–	–	–	–	–	–	–
CN1C/C(=C\c2ccccc2[N+](=O)[O-])C(=O)/C(=C/c2ccccc2[N+](=O)[O-])C1	14.4 µM and 12.9 µM	0.546 µM and 0.415 µM	2.73 µM and 0.505 µM	0.911	1.05 µM and 0.396 µM	2.3 µM and 3.86 µM	6.77 µM and 7.57 µM	13.2 µM and 7.93 µM	0.886 µM and 0.603 µM	1.28 µM and 1.12 µM	–	–	1.29 µM and 0.216 µM	0.284	0.437 µM and 0.187 µM	0.53 µM and 1.13 µM	–	–	0.292	–
CN(Cc1nc2c(N)nc(N)nc2nc1N)c1ccc(C(=O)NC(CCC(=O)O)C(=O)O)cc1 (stereo not given)	> 100 µM	> 100 µM	> 100 µM	> 100	> 100 µM	> 100 µM	> 100 µM	> 100 µM	> 100 µM	> 100 µM	–	–	–	–	–	–	–	–	–	–
COc1ccc(C=O)cc1Oc1ccc(C[C@H]2c3c(cc(OC)c4c3Oc3cc5c(cc3O4)CCN(C)C5=O)CCN2C)cc1	> 50 µM	15 µM	20.2 µM	14.6	18.1 µM	18.3 µM	14 µM	21.7 µM	30.9 µM	14.6 µM	–	–	–	–	–	–	–	–	–	–
